Results from patent publication US6867225B2, “Thiazole or oxazole derivatives which are useful in the treatment of cardiovascular and related diseases” (SmithKline Beecham Corporation, priority 2001, dated 2005).

What was measured:
Test in all cases: Transient transfection (transactivation) assay in CV-1 cells, GAL4 chimera, SPAP reporter
Type in all cases: cell-based
hPPAR δ = target: T1, hPPAR δ (Homo sapiens, UniProt Q03181)
T1 construct: expressed in transfected cells; host or cells: CV-1 cells
T1 sequence (Q03181 211-439 limits assumed): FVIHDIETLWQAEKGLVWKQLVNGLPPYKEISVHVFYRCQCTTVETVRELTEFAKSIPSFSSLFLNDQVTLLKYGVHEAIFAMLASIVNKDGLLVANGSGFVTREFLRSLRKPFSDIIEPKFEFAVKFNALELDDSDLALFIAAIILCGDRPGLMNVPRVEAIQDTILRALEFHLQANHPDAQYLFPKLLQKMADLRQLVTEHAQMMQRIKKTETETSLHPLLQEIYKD
Source text: (§1) Compounds were screened for functional potency in transient transfection assays in CV-1 cells for their ability to activate the PPAR subtypes (transactivation assay). A previously established chimeric receptor system was utilized to allow comparison of the relative transcriptional activity of the receptor subtypes on the same target gene and to prevent endogenous receptor activation from complicating the interpretation of results. See, for example, Lehmann, J. M.; Moore, L. B.; Smith-Oliver, Oliver T. A.; Wilkison, W. O.; Willson, T. M.; Kliewer, S. A., An antidiabetic thiazolidinedione is a high affinity ligand for peroxisome proliferator-activated receptor gamma (PPAR gamma), J. Biol. Chem., 1995, 270, 12953-6. The ligand binding domains for murine and human PPAR alpha, PPAR gamma, and PPAR delta were each fused to the yeast transcription factor GAL4 DNA binding domain. CV-1 cells were transiently transfected with expression vectors for the respective PPAR chimera along with a reporter construct containing five copies of the GAL4 DNA binding site driving expression of secreted placental alkaline phosphatase (SPAP) and β-galactosidase. After 16 h, the medium was exchanged to DME medium supplemented with 10% delipidated fetal calf serum and the test compound at the appropriate concentration. After an additional 24 h, cell extracts were prepared and assayed for alkaline phosphatase and β-galactosidase activity. Alkaline phosphatase activity was corrected for transfection efficiency using the β-galactosidase activity as an internal standard (see, for example, Kliewer, S. A., et. al. Cell 83, 813-819 (1995)). Rosiglitazone (BRL 49653) was used as a positive control in the hPPAR gamma assay. The positive control in the hPPAR alpha assays was 2-(2-methyl-3-[3-{3-(4-cyclohexylamino)[6-(4-fluorophenylpiperazin-1-yl)][1,3,5]triazin-2-ylamino}propyl]phenylthio)-2-methylpropionic acid. The positive control for PPAR delta assays was 2-{2-methyl-4-[({4-methyl-2-{-{trifluoromethyl)phenyl]-1,3-thiazol-5-yl}methyl)sulfanyl]phenoxy}acetic acid.

hPPAR α = target: T2, hPPAR α (Homo sapiens, UniProt Q07869)
T2 construct: expressed in transfected cells; host or cells: CV-1 cells
T2 sequence (Q07869 239-466 limits assumed): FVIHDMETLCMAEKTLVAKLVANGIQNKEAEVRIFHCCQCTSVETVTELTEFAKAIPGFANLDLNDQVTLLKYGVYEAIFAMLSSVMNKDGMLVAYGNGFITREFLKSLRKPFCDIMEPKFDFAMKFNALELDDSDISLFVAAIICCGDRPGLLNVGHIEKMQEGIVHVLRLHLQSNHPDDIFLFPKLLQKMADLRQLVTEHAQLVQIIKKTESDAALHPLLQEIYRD
Source text: as §1

hPPAR γ = target: T3, hPPAR γ (Homo sapiens, UniProt P37231)
T3 construct: expressed in transfected cells; host or cells: CV-1 cells
T3 sequence (P37231 238-503 limits assumed): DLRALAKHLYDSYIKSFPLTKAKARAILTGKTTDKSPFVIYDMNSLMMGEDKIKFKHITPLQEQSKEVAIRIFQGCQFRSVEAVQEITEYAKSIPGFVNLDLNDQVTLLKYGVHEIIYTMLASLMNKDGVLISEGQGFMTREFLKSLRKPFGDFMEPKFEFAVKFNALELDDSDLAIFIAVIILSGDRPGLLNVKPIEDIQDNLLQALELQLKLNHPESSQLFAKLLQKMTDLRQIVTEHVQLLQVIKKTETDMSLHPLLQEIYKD
Source text: as §1

EC50 (hPPAR δ): 8600 nM
EC50 (hPPAR α): 10 nM
EC50 (hPPAR γ): 2220 nM
Compound: Cc1nc(-c2ccc(C(F)(F)F)cc2)sc1C(=O)NC1CCCc2cc(OC(C)(C)C(=O)O)ccc21 (stereo not drawn) [Example 4]
